Measured values reported in patent US20220228120A1, “Cardiomyocyte Compositions and Use Thereof” (UNIVERSITY HEALTH NETWORK, priority 2019, published 2022).

How the values were obtained:
Assay type in all cases: cell-based, human
[1] = test system: CD36^+SIRPA^+ compact cardiomyocytes; assay: Flow cytometric analyses of CD36 and SIRPA expression
Procedure: The EBs were dissociated by incubation in Collagenase type 2 (0.5 mg/ml, Worthington) in HANKs buffer overnight at room temperature followed by TrypLE™ for 5 mins at 37° C. The following antibodies were used for staining: anti-SIRPa-PeCy7 (Biolegend, 1:1000), anti-CD36-FITC (BD PharMingen™, 1:200), anti-LDLR-BV421 (BD PharMingen™, 1:100), anti-cardiac isoform of cTNT (ThermoFisher Scientific, 1:2000), or anti-myosin light chain 2 (Abcam,1:1000). For unconjugated primary antibodies, the following secondary antibodies were used for detection: goat anti-mouse IgG-APC (BD PharMingen™, 1:500), or donkey anti-rabbit IgG-PE (Jackson ImmunoResearch, 1:500). Detailed antibody information is described in the Key Resources Table. […] Stained cells were analyzed using the LSR II Flow cytometer (BD PharMingen™). Data were analyzed using FlowJo™ software (Tree Star).
To evaluate the capacity of the day 18 compact cardiomyocytes to undergo FAO, we analyzed them for expression of the fatty acid transporter CD36, which is essential for transporting fatty acid into cells (FIG. 2B). Given that most mature cardiomyocytes in the human heart express CD36, flow cytometric analyses of this transporter would provide rapid quantitative measure of the maturation status of these cells.

[2] = test system: HEY2, MYCN, ANF, BMP10 expression; assay: RT-qPCR of compact and trabecular markers after 6 days with factors; settings: factors day 10-16
Procedure: (§1) Total RNA from samples was isolated using RNAqueous™-micro Kit including RNase-free DNase treatment (invitrogen). RNA from dissected ventricular and atrial tissue of human fetal hearts was isolated using the TRIzol® method (ThermoFisher) and treated with DNase (Ambion®). Isolated RNA was reverse transcribed into cDNA using oligo (dT) primers and random hexamers and iScript™ Reverse Transcriptase (ThermoFisher). QRT-PCR was performed on an EP Real-Plex MasterCycler® (Eppendorf®) using QuantiFast® SYBR Green PCR kit (QIAGEN). The copy number of each gene relative to the house keeping gene TBP.
For these studies, we used our previously published protocol to generate cardiomyocytes (Lee, supra). […] Using this timeframe as an indication of the proliferative stage of ventricular development, between days 10 and 16 of differentiation, we added the small molecule GSK-3 inhibitor CHIR-99021 (“CHIR”; a WNT pathway agonist), or IGF2, or both, to the day 10 cell population (FIG. 1D). As a control, we added neuregulin 1 (NRG) to the cultures as it promotes the development of the trabecular myocardium in the developing heart (see, e.g., Del Monte-Nieto et al., Nature (2018) 557(7705):439-45; and Odiete et al., Circ Res. (2012) 111(10):1376-85). The cells were cultured with these factors for 6 days. The cells were then harvested, counted, and analyzed for expression of compact and trabecular genes by RT-qPCR. […] The addition of both factors promoted the greatest expansion in cell number, resulting in a 2-fold increase. […] It had little effect on HEY2, which was already expressed at reasonable levels within the population. IGF2 signaling had no effect on the expression of these genes. Addition of NRG reduced the expression of HEY2 and increased the expression of ANF, indicative of specification of a trabecular fate.

[3] = test system: hPSC-derived ventricular cardiomyocytes; assay: HEY2/ANF immunostaining of day 16 ventricular population; settings: day 16 population
Procedure: The EBs were dissociated as described above and the cells were plated onto 24 well culture dishes pre-coated with Matrigel™ (25% v/v, BD PharMingen™). Cells were cultured for 2-3 days and were fixed with 4% PFA in PBS for 15 min at room temperature. Cells were permeabilized and blocked with PBS containing 5% donkey serum, 0.1% TritonX™. The following antibodies were used for staining: mouse anti-cardiac isoform of cTNT (ThermoFisher Scientific, 1:200), rabbit anti-human HEY2 (Proteintech, 1:100), mouse anti-human ANF (Abcam, 1:100), rabbit anti-human cTNT (Abcam, 1:200), or rabbit anti-human CD90 (Abcam, 1:200). For detecting unconjugated primary antibodies, the following secondary antibodies were used: donkey anti-mouse IgG-Alexa Fluor™ 488 (ThermoFisher, 1:500), donkey anti-rabbit IgG-Alexa Fluor™ 555 (ThermoFisher, 1:500), donkey anti-rabbit IgG-Alexa488 (ThermoFisher, 1:500), donkey anti-mouse IgG-Alexa Fluor™ 555 (ThermoFisher, 1:500). Detailed antibody information is described in the Key Resources Table. Cells were stained with primary antibodies in staining buffer consisting of PBS with 0.1% TritonX, and 5% donkey serum overnight at 4° C. The stained cells were washed with PBS. […] Stained cells were analyzed using an EVOS Microscope (ThermoFisher) and Zeiss LSM700 confocal microscope (Zeiss).

[4] = test system: hPSC-derived ventricular cardiomyocytes; assay: Cardiomyocyte proliferation/expansion, factors added day 10 to day 16; settings: CHIR 1 μM or IGF2 25 ng/ml
Procedure: The EBs were dissociated as described above. The following antibodies were used for staining: mouse anti-Ki67 (DAKO, 1:100) and rabbit anti-cardiac isoform of cTNT (ThermoFisher Scientific, 1:500). The following secondary antibodies were used for detection: donkey anti-mouse IgG-APC (BD Pharmigen™, 1:500), or donkey anti-rabbit IgG-PE (Jackson ImmunoResearch, 1:500). Detailed antibody information is described in the Key Resources Table. Cells were fixed for 20 mins at 4 C with 4% PFA in PBS followed by permeabilization using 90% methanol for 20 mins at 4° C. Cells were washed with PBS containing 0.5% BSA (Sigma) and stained with unconjugated primary antibodies in FACS buffer overnight at 4° C. Stained cells were washed with PBS with 0.5% BSA and stained with secondary antibodies in FACS buffer for 30 mins at 4° C. Stained cells were analyzed using the LSR II Flow cytometer (BD PharMingen™). Data were analyzed using FlowJo™ software (Tree Star). At day 5, the EBs were transferred to StemPro™-34 with rhVEGF (5 ng/ml) for another 5 days and then to DMEM high glucose (Life Technologies) with 0.5 mg/mL human serum albumin (Sigma), ascorbic acid, transferrin, insulin (10 ng/ml, Sigma), CHIR (1 μM, Bio-Techne), and IGF2 (25 ng/ml, Bio-Techne) from day 10 to day 16. […] The cells were then harvested, counted, and analyzed for expression of compact and trabecular genes by RT-qPCR. […]

[5] = test system: compact ventricular populations; assay: cTNT and Ki67 flow cytometry after 2 days XAV (day 18)
Procedure: The EBs were dissociated by incubation in Collagenase type 2 (0.5 mg/ml, Worthington) in HANKs buffer overnight at room temperature followed by TrypLE™ for 5 mins at 37° C. The following antibodies were used for staining: anti-SIRPa-PeCy7 (Biolegend, 1:1000), anti-CD36-FITC (BD PharMingen™, 1:200), anti-LDLR-BV421 (BD PharMingen™, 1:100), anti-cardiac isoform of cTNT (ThermoFisher Scientific, 1:2000), or anti-myosin light chain 2 (Abcam,1:1000). For unconjugated primary antibodies, the following secondary antibodies were used for detection: goat anti-mouse IgG-APC (BD PharMingen™, 1:500), or donkey anti-rabbit IgG-PE (Jackson ImmunoResearch, 1:500). Detailed antibody information is described in the Key Resources Table. For cell-surface marker analyses, cells were stained for 30 min at 4° C. in FACS buffer consisting of PBS with 5% fetal calf serum (FCS) (Wisent) and 0.02% sodium azide. For intracellular staining, cells were fixed for 20 mins at 4° C. with 4% PFA in PBS followed by permeabilization using 90% methanol for 20 mins at 4° C. Cells were washed with PBS containing 0.5% BSA (Sigma) and stained with unconjugated primary antibodies in FACS buffer overnight at 4° C. Stained cells were washed with PBS with 0.5% BSA and stained with secondary antibodies in FACS buffer for 30 mins at 4° C. Stained cells were analyzed using the LSR II Flow cytometer (BD PharMingen™). Data were analyzed using FlowJo™ software (Tree Star).
The EBs were dissociated as described above. The following antibodies were used for staining: mouse anti-Ki67 (DAKO, 1:100) and rabbit anti-cardiac isoform of cTNT (ThermoFisher Scientific, 1:500). The following secondary antibodies were used for detection: donkey anti-mouse IgG-APC (BD Pharmigen™, 1:500), or donkey anti-rabbit IgG-PE (Jackson ImmunoResearch, 1:500). Detailed antibody information is described in the Key Resources Table. […] Stained cells were analyzed using the LSR II Flow cytometer (BD PharMingen™). Data were analyzed using FlowJo™ software (Tree Star). […]

FAO-related genes = assay: RT-qPCR of FAO-related, mitochondrial and maturation genes in day 32 compact cardiomyocytes
Procedure: as §1

CC(C)(Sc1ccc(CCN(CCCCC2CCCCC2)C(=O)NC2CCCCC2)cc1)C(=O)O [GW7647]
size of CD36+ population detected at day 32 ([1]; 1 μM added to day 18 CMs): significant increase

neuregulin 1 [NRG]
expression of ANF [2]: increased | expression of HEY2 [2]: reduced | ANF+ cells by immunostaining [3]: presence | HEY+ compact cells by immunostaining [3]: lack

Cc1c[nH]c(-c2cnc(NCCNc3ccc(C#N)cn3)nc2-c2ccc(Cl)cc2Cl)n1 [CHIR, 6-((2-((4-(2,4-Dichlorophenyl)-5-(4-methyl-1H-imidazol-2-yl)pyrimidin-2-yl)amino)ethyl)amino)nicotinonitrile]
expression of ANF [2]: decrease | expression of BMP10 [2]: decrease | expression of HEY2 [2]: little effect | expression of MYCN [2]: significant increase | expression of the fatty acid transporter CD36 [2]: reduced | expression of the glucose transporter GLUT1 [2]: increased | proportion of Ki67^−cTNT^+ cardiomyocytes detected at day 16 [4]: significant increase | proportion of cTNT^+ cells in the population ([5]; XAV(−) vs. ventricular control, day 18): reduction

N[C@@H](Cc1cc(I)c(Oc2ccc(O)c(I)c2)c(I)c1)C(=O)O [thyroid hormone (T3), triiodothyronine]
effect on CD36 expression among other pathways tested ([1]; only observed in the presence of PPARα signaling): largest effect

O=c1[nH]c(-c2ccc(C(F)(F)F)cc2)nc2c1CSCC2 [XAV, 2-(4-(trifluoromethyl)phenyl)-7,8-dihydro-5H-thiopyrano[4,3-d]pyrimidin-4-ol]
proportion of Ki67^+ cells in the population ([5]; XAV following the CHIR/IGF2-induced proliferative stage): significantly reduced | proportion of the non-cardiomyocytes ([5]; XAV for 2 days after CHIR/IGF2): reduction

CCCCCCCCCCCCCCCC(=O)O [palmitate]
expression of mitochondrial/electron transport chain genes ATP5A1, COX7A1, CKMT2 (FAO-related genes): no effect | expression of FAO pathway components CD36, FABP3, CPT1B, MLYCD (FAO-related genes; vs untreated populations): no effect | level of ACC2 (FAO-related genes; vs untreated populations): no effect

insulin-like growth factor 2 [IGF2]
expression of ANF [2]: no effect | expression of BMP10 [2]: no effect | expression of HEY2 [2]: no effect | expression of MYCN [2]: no effect | proportion of Ki67^−cTNT^+ cardiomyocytes detected at day 16 [4]: significant increase
